Experimental data published in US6472348B1, “Pyridone derivatives and herbicides” (Kumiai Chemical Industry Co., Ltd., priority 1996, dated 2002).

Tests used:
slender amaranth (Am) [1] = assay: Test Example 2: herbicidal effects by upland field soil treatment; format: in vivo; details: 100 g of the active ingredient per 10 ares;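 note: grade of growth control; 5 = at least 90%; 4 = 70 to 90%; 3 = 50 to 70%; 2 = 30 to 50%; 1 = 10 to 30%; 0 = under 10%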
Text: (§1) (Test on Herbicidal Effects by Upland Field Soil Treatment)

rice flatsedge (Ci) [2] = assay: as above; format: in vivo; details: 100 g of the active ingredient per 10 ares
Text: as §1

Digitaria ciliaris (Di) = assay: as above; format: in vivo; details: 100 g of the active ingredient per 10 ares
Text: as §1

[3] = tested on: common lambsquarters (Ch); assay: as above; format: in vivo; details: 100 g of the active ingredient per 10 ares
Text: as §1

barnyardgrass (Ec) [4] = assay: as above; format: in vivo; details: 100 g of the active ingredient per 10 ares
Text: as §1

pale smartweed (Po) [5] = assay: as above; format: in vivo; details: 100 g of the active ingredient per 10 ares
Text: as §1

bulrush (Sc) = assay: Test Example 1: herbicidal effects by paddy field soil treatment; format: in vivo; details: 100 g of the active ingredient per 10 ares, 21st day after the application, index 0-5 of Table 47;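 note: grade of growth control; 5 = at least 90%; 4 = 70 to 90%; 3 = 50 to 70%; 2 = 30 to 50%; 1 = 10 to 30%; 0 = under 10%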
Procedure, shortened: (§2)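 Flooded paddy-soil pots (3 cm water) sown after puddling/leveling; treatment 100 g a.i./10 ares; greenhouse culture; herbicidal effect rated visually on a scoring scale at 21 d post-application.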

barnyardgrass (Ec) [6] = assay: as above; format: in vivo; details: 100 g of the active ingredient per 10 ares, 21st day after the application, index 0-5 of Table 47
Procedure, shortened: as §2

monochoria (Mo) = assay: as above; format: in vivo; details: 100 g of the active ingredient per 10 ares, 21st day after the application, index 0-5 of Table 47;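 note: grade of growth control; 5 = at least 90%; 4 = 70 to 90%; 3 = 50 to 70%; 2 = 30 to 50%; 1 = 10 to 30%; 0 = under 10%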
Procedure, shortened: as §2

slender amaranth (Am) [7] = assay: Test Example 3: herbicidal effects by upland field foliage treatment; format: in vivo; set-up: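 grade of growth control; 5 = at least 90%; 4 = 70 to 90%; 3 = 50 to 70%; 2 = 30 to 50%; 1 = 10 to 30%; 0 = under 10%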
Procedure, shortened: (§3)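 Post-emergence upland foliage test. Seedlings grown 2 weeks under glass in pots (120 cm^2) of sand, seed topped with soil; treated on the foliage, kept in greenhouse, then assessed at day 14 using rating standards.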

Diaitaria ciliaris (Di) = assay: as above; format: in vivo; set-up: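 grade of growth control; 5 = at least 90%; 4 = 70 to 90%; 3 = 50 to 70%; 2 = 30 to 50%; 1 = 10 to 30%; 0 = under 10%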
Procedure, shortened: as §3

rice flatsedge (Ci) [8] = assay: as above; format: in vivo; set-up: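 grade of growth control; 5 = at least 90%; 4 = 70 to 90%; 3 = 50 to 70%; 2 = 30 to 50%; 1 = 10 to 30%; 0 = under 10%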
Procedure, shortened: as §3

[9] = tested on: common lambsquarters (Ch); assay: as above; format: in vivo; set-up: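 grade of growth control; 5 = at least 90%; 4 = 70 to 90%; 3 = 50 to 70%; 2 = 30 to 50%; 1 = 10 to 30%; 0 = under 10%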
Procedure, shortened: as §3

barnyardgrass (Ec) [10] = assay: as above; format: in vivo; set-up: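 grade of growth control; 5 = at least 90%; 4 = 70 to 90%; 3 = 50 to 70%; 2 = 30 to 50%; 1 = 10 to 30%; 0 = under 10%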
Procedure, shortened: as §3

pale smartweed (Po) [11] = assay: as above; format: in vivo; set-up: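 grade of growth control; 5 = at least 90%; 4 = 70 to 90%; 3 = 50 to 70%; 2 = 30 to 50%; 1 = 10 to 30%; 0 = under 10%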
Procedure, shortened: as §3

[12] = 21st day after the application, index 0-5 of Table 47
[13] = 100 g of the active ingredient per 10 ares, evaluated on the 14th day after treatment
[14] = evaluated on the 21st day after application
[15] = 100 g active ingredient per 10 ares, evaluated 14th day after treatment

## Cn1c(C(F)(F)F)ccc(-c2cc([S+](C)[O-])c(Cl)cc2F)c1=O (stereo not drawn) [Compound No. 1-88, 3-(4-chloro-2-fluoro-5-methylsulfinylphenyl)-1-methyl-6-trifluoromethyl-2(1H)-pyridone]
Slender amaranth (Am) [1]; [12]
  Herbicidal effects Am: 5
Rice flatsedge (Ci) [2]; [12]
  Herbicidal effects Ci: 5
Digitaria ciliaris (Di); [12]
  Herbicidal effects Di: 5
[3]; [12]
  Herbicidal effects Ch: 5
Barnyardgrass (Ec) [4]; [12]
  Herbicidal effects Ec: 4
Pale smartweed (Po) [5]; [12]
  Herbicidal effects Po: 5
Bulrush (Sc)
  Herbicidal effects Sc: 5
Barnyardgrass (Ec) [6]
  Herbicidal effects Ec: 5
Monochoria (Mo)
  Herbicidal effects Mo: 5
other
  melting point: 147 to 148 °C

## C#CCOc1cc(-c2cc(C)c(C(F)(F)F)n(C)c2=O)c(F)cc1Cl [Compound No. 1-76, 3-(4-chloro-2-fluoro-5-propargyloxyphenyl)-1,5-dimethyl-6-trifluoromethyl-2(1H)-pyridone]
Slender amaranth (Am) [1]; [12]
  Herbicidal effects Am: 5
Rice flatsedge (Ci) [2]; [12]
  Herbicidal effects Ci: 5
Digitaria ciliaris (Di); [12]
  Herbicidal effects Di: 5
[3]; [12]
  Herbicidal effects Ch: 5
Barnyardgrass (Ec) [4]; [12]
  Herbicidal effects Ec: 5
Pale smartweed (Po) [5]; [12]
  Herbicidal effects Po: 5
Bulrush (Sc)
  Herbicidal effects Sc: 5
Barnyardgrass (Ec) [6]
  Herbicidal effects Ec: 5
Monochoria (Mo)
  Herbicidal effects Mo: 5
Slender amaranth (Am) [7]; [13]
  Herbicidal effects Am: 5
Diaitaria ciliaris (Di); [13]
  Herbicidal effects Di: 5
Rice flatsedge (Ci) [8]; [13]
  Herbicidal effects Ci: 5
[9]; [13]
  Herbicidal effects Ch: 5
Barnyardgrass (Ec) [10]; [13]
  Herbicidal effects Ec: 5
Pale smartweed (Po) [11]; [13]
  Herbicidal effects Po: 5
other
  melting point: 107 to 108 °C

## C#CCn1c(=O)oc2cc(Cl)c(-c3ccc(C(F)(F)F)n(C)c3=O)cc21 [Compound No. 3-9, 3-[6-chloro-3-(2-propynyl)-benzoxazolin-2-on-5-yl]-1-methyl-6-trifluoromethyl-2(1H)-pyridone]
Slender amaranth (Am) [1]; [14]
  Herbicidal effects Am: 5
Rice flatsedge (Ci) [2]; [14]
  Herbicidal effects Ci: 5
Digitaria ciliaris (Di); [14]
  Herbicidal effects Di: 5
[3]; [14]
  Herbicidal effects Ch: 5
Barnyardgrass (Ec) [4]; [14]
  Herbicidal effects Ec: 5
Pale smartweed (Po) [5]; [14]
  Herbicidal effects Po: 5
Bulrush (Sc)
  Herbicidal effects Sc: 5
Barnyardgrass (Ec) [6]
  Herbicidal effects Ec: 5
Monochoria (Mo)
  Herbicidal effects Mo: 5
other
  melting point: 187 to 189 °C

## CCCC(O)c1cc(-c2ccc(C(F)(F)F)n(C)c2=O)c(F)cc1Cl (stereo not drawn) [Compound No. 1-193, 3-[4-chloro-2-fluoro-5-(1-hydroxybutyl)phenyl]-1-methyl-6-trifluoromethyl-2(1H)-pyridone]
Slender amaranth (Am) [1]; [14]
  Herbicidal effects Am: 5
Rice flatsedge (Ci) [2]; [14]
  Herbicidal effects Ci: 5
Digitaria ciliaris (Di); [14]
  Herbicidal effects Di: 5
[3]; [14]
  Herbicidal effects Ch: 5
Barnyardgrass (Ec) [4]; [14]
  Herbicidal effects Ec: 5
Pale smartweed (Po) [5]; [14]
  Herbicidal effects Po: 5
Bulrush (Sc)
  Herbicidal effects Sc: 5
Barnyardgrass (Ec) [6]
  Herbicidal effects Ec: 5
Monochoria (Mo)
  Herbicidal effects Mo: 5
Slender amaranth (Am) [7]; [15]
  Herbicidal effects Am: 5
Diaitaria ciliaris (Di); [15]
  Herbicidal effects Di: 5
Rice flatsedge (Ci) [8]; [15]
  Herbicidal effects Ci: 5
[9]; [15]
  Herbicidal effects Ch: 5
Barnyardgrass (Ec) [10]; [15]
  Herbicidal effects Ec: 5
Pale smartweed (Po) [11]; [15]
  Herbicidal effects Po: 5
other
  melting point: 120 to 122 °C

## Cn1c(C(F)(F)F)ccc(-c2cc(S(C)(=O)=O)c(Cl)cc2F)c1=O [Compound No. 1-73, 3-(4-chloro-2-fluoro-5-methylsulfonylphenyl)-1-methyl-6-trifluoromethyl-2(1H)-pyridone]
Slender amaranth (Am) [1]; [12]
  Herbicidal effects Am: 5
Rice flatsedge (Ci) [2]; [12]
  Herbicidal effects Ci: 5
Digitaria ciliaris (Di); [12]
  Herbicidal effects Di: 5
[3]; [12]
  Herbicidal effects Ch: 5
Barnyardgrass (Ec) [4]; [12]
  Herbicidal effects Ec: 4
Pale smartweed (Po) [5]; [12]
  Herbicidal effects Po: 5
Bulrush (Sc)
  Herbicidal effects Sc: 5
Barnyardgrass (Ec) [6]
  Herbicidal effects Ec: 5
Monochoria (Mo)
  Herbicidal effects Mo: 5
other
  melting point: 144 to 145 °C

## Cn1c(C(F)(F)F)ccc(-c2cc(CBr)c(Cl)cc2F)c1=O [Compound No. 1-82, 3-(4-chloro-2-fluoro-5-bromomethylphenyl)-1-methyl-6-trifluoromethyl-2(1H)-pyridone]
Slender amaranth (Am) [1]; [12]
  Herbicidal effects Am: 5
Rice flatsedge (Ci) [2]; [12]
  Herbicidal effects Ci: 5
Digitaria ciliaris (Di); [12]
  Herbicidal effects Di: 5
[3]; [12]
  Herbicidal effects Ch: 5
Barnyardgrass (Ec) [4]; [12]
  Herbicidal effects Ec: 4
Pale smartweed (Po) [5]; [12]
  Herbicidal effects Po: 5
Bulrush (Sc)
  Herbicidal effects Sc: 5
Barnyardgrass (Ec) [6]
  Herbicidal effects Ec: 5
Monochoria (Mo)
  Herbicidal effects Mo: 5
Slender amaranth (Am) [7]; [13]
  Herbicidal effects Am: 5
Diaitaria ciliaris (Di); [13]
  Herbicidal effects Di: 5
Rice flatsedge (Ci) [8]; [13]
  Herbicidal effects Ci: 5
[9]; [13]
  Herbicidal effects Ch: 5
Barnyardgrass (Ec) [10]; [13]
  Herbicidal effects Ec: 4
Pale smartweed (Po) [11]; [13]
  Herbicidal effects Po: 5
other
  melting point: 117 to 118 °C
